Earlier results, collected in patent US12220439B2, “Methods of diagnosing and treating dry eye syndrome and compositions for treating a human eye” (Akrivista LLC, priority 2017, dated 2025).

Columns and labels:
corneal cells = settings: concentrations from about 0.004% to about 0.02% (w/v)
Pseudomonas aeruginosa = settings: strains of Pseudomonas aeruginosa
HLA-DR = settings: dry eye disease biomarker

Compound	effect on corneal epithelium (corneal cells)	effectiveness against potential contaminants (Pseudomonas aeruginosa)	HLA-DR presence on treatment (HLA-DR)
benzalkonium chloride [BAK]	can lead to corneal epithelial separation	not effective	
C[C@@H]1CCN(C(=O)CC#N)C[C@@H]1N(C)c1ncnc2[nH]ccc12 [tofacitinib]			Presence decreased with CsA
